Experimental data from PubChem BioAssay (NCI).
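Method: 48-hour compound exposure of cells in 96-well plates, five concentrations, linear interpolation of endpoints. GI50 marks 50% less growth. Definition used: TGI = concentration required for complete inhibition of growth.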

What was measured:
Test in all cases: inhibition of tumour cell growth, NCI panel, 48 h
786-0 renal = system: 786-0 renal
A498 renal = system: A498 renal
A549 NSCLC = system: A549 NSCLC
ACHN renal = system: ACHN renal
BT-549 breast = system: BT-549 breast
COLO 205 colon = system: COLO 205 colon
DU-145 prostate = system: DU-145 prostate
EKVX NSCLC = system: EKVX NSCLC
HCC-2998 colon = system: HCC-2998 colon
HCT-15 colon = system: HCT-15 colon
HL-60(TB) leukemia = system: HL-60(TB) leukemia
HOP-62 NSCLC = system: HOP-62 NSCLC
HOP-92 NSCLC = system: HOP-92 NSCLC
HS 578T breast = system: HS 578T breast
HT29 colon = system: HT29 colon
K-562 leukemia = system: K-562 leukemia
KM12 colon = system: KM12 colon
LOX IMVI melanoma = system: LOX IMVI melanoma
M14 melanoma = system: M14 melanoma
MCF7 breast = system: MCF7 breast
MDA-MB-231 breast = system: MDA-MB-231 breast
MDA-MB-435 = system: MDA-MB-435
NCI-H23 lung = system: NCI-H23 lung
NCI-H460 lung = system: NCI-H460 lung
NCI/ADR-RES ovarian = system: NCI/ADR-RES ovarian
OVCAR-3 ovarian = system: OVCAR-3 ovarian
OVCAR-4 ovarian = system: OVCAR-4 ovarian
OVCAR-5 ovarian = system: OVCAR-5 ovarian
OVCAR-8 ovarian = system: OVCAR-8 ovarian
PC-3 prostate = system: PC-3 prostate
RPMI-8226 leukemia = system: RPMI-8226 leukemia
RXF 393 renal = system: RXF 393 renal
SF-268 CNS = system: SF-268 CNS
SF-539 CNS = system: SF-539 CNS
SK-MEL-2 melanoma = system: SK-MEL-2 melanoma
SK-MEL-28 melanoma = system: SK-MEL-28 melanoma
SK-OV-3 ovarian = system: SK-OV-3 ovarian
SN12C renal = system: SN12C renal
SNB-75 CNS = system: SNB-75 CNS
SW-620 colon = system: SW-620 colon
TK-10 renal = system: TK-10 renal
U251 CNS = system: U251 CNS
UACC-257 melanoma = system: UACC-257 melanoma
UACC-62 melanoma = system: UACC-62 melanoma
UO-31 renal = system: UO-31 renal
CAKI-1 renal = system: CAKI-1 renal
CCRF-CEM leukemia = system: CCRF-CEM leukemia
HCT-116 colon = system: HCT-116 colon
IGROV1 ovarian = system: IGROV1 ovarian
MALME-3M melanoma = system: MALME-3M melanoma
MOLT-4 leukemia = system: MOLT-4 leukemia
NCI-H226 lung = system: NCI-H226 lung
NCI-H522 lung = system: NCI-H522 lung
SF-295 CNS = system: SF-295 CNS
SK-MEL-5 melanoma = system: SK-MEL-5 melanoma
SNB-19 CNS = system: SNB-19 CNS
T-47D breast = system: T-47D breast

In the case of `COc1ccc2c(c1)c(-c1nc(-c3c[nH]c4ncccc34)cs1)cn2CCCN1CCCCC1`, the GI50 (786-0 renal) is reported as 1.61 µM, the TGI (786-0 renal) is reported as 3.06 µM and the GI50 (A498 renal) is reported as 1.82 µM. It also gave a TGI (A498 renal) of 3.42 µM, a GI50 (A549 NSCLC) of 1.86 µM and a TGI (A549 NSCLC) of 3.53 µM. The GI50 (ACHN renal) was 1.62 µM, the TGI (ACHN renal) was 3.01 µM and the GI50 (BT-549 breast) was 3.28 µM. It also gave a TGI (BT-549 breast) of 12.7 µM, a GI50 (COLO 205 colon) of 1.8 µM and a TGI (COLO 205 colon) of 3.52 µM. The GI50 (DU-145 prostate) was 1.65 µM, the TGI (DU-145 prostate) was 3.13 µM and the GI50 (EKVX NSCLC) was 1.44 µM. The TGI (EKVX NSCLC) was 2.9 µM, the GI50 (HCC-2998 colon) was 1.78 µM and the TGI (HCC-2998 colon) was 3.42 µM. For the same compound, the GI50 (HCT-15 colon) was 1.57 µM, the TGI (HCT-15 colon) was 2.97 µM and the GI50 (HL-60(TB) leukemia) was 1.86 µM. For the same compound, the TGI (HL-60(TB) leukemia) was 3.79 µM, the GI50 (HOP-62 NSCLC) was 1.61 µM and the TGI (HOP-62 NSCLC) was 3.2 µM. For the same compound, the GI50 (HOP-92 NSCLC) was 1.5 µM, the TGI (HOP-92 NSCLC) was 3.1 µM and the GI50 (HS 578T breast) was 2.05 µM. The TGI (HS 578T breast) was 5.61 µM, the GI50 (HT29 colon) was 1.81 µM and the TGI (HT29 colon) was 3.53 µM. It also gave a GI50 (K-562 leukemia) of 1.88 µM, a TGI (K-562 leukemia) of 4.16 µM and a GI50 (KM12 colon) of 1.87 µM. It also gave a TGI (KM12 colon) of 3.86 µM, a GI50 (LOX IMVI melanoma) of 1.67 µM and a TGI (LOX IMVI melanoma) of 3.18 µM. It also gave a GI50 (M14 melanoma) of 1.79 µM, a TGI (M14 melanoma) of 3.51 µM and a GI50 (MCF7 breast) of 1.43 µM. It also gave a TGI (MCF7 breast) of 2.9 µM, a GI50 (MDA-MB-231 breast) of 1.66 µM and a TGI (MDA-MB-231 breast) of 3.27 µM. The GI50 (MDA-MB-435) was 1.7 µM, the TGI (MDA-MB-435) was 3.21 µM and the GI50 (NCI-H23 lung) was 1.77 µM. For the same compound, the TGI (NCI-H23 lung) was 3.52 µM, the GI50 (NCI-H460 lung) was 1.94 µM and the TGI (NCI-H460 lung) was 3.88 µM. For the same compound, the GI50 (NCI/ADR-RES ovarian) was 1.72 µM, the TGI (NCI/ADR-RES ovarian) was 3.44 µM and the GI50 (OVCAR-3 ovarian) was 1.63 µM. The TGI (OVCAR-3 ovarian) was 3.1 µM, the GI50 (OVCAR-4 ovarian) was 1.83 µM and the TGI (OVCAR-4 ovarian) was 4.35 µM. It also gave a GI50 (OVCAR-5 ovarian) of 1.73 µM, a TGI (OVCAR-5 ovarian) of 3.8 µM and a GI50 (OVCAR-8 ovarian) of 2 µM. The TGI (OVCAR-8 ovarian) was 3.76 µM, the GI50 (PC-3 prostate) was 1.7 µM and the TGI (PC-3 prostate) was 3.29 µM. For the same compound, the GI50 (RPMI-8226 leukemia) was 2.19 µM, the TGI (RPMI-8226 leukemia) was 4.8 µM and the GI50 (RXF 393 renal) was 1.59 µM. For the same compound, the TGI (RXF 393 renal) was 3.2 µM, the GI50 (SF-268 CNS) was 1.52 µM and the TGI (SF-268 CNS) was 3.17 µM. It also gave a GI50 (SF-539 CNS) of 1.63 µM, a TGI (SF-539 CNS) of 3.07 µM and a GI50 (SK-MEL-2 melanoma) of 1.85 µM. It also gave a TGI (SK-MEL-2 melanoma) of 3.72 µM, a GI50 (SK-MEL-28 melanoma) of 1.72 µM and a TGI (SK-MEL-28 melanoma) of 3.26 µM. For the same compound, the GI50 (SK-OV-3 ovarian) was 1.73 µM, the TGI (SK-OV-3 ovarian) was 3.27 µM and the GI50 (SN12C renal) was 1.75 µM. For the same compound, the TGI (SN12C renal) was 3.36 µM, the GI50 (SNB-75 CNS) was 1.19 µM and the TGI (SNB-75 CNS) was 3.09 µM. It also gave a GI50 (SW-620 colon) of 2 µM, a TGI (SW-620 colon) of 3.95 µM and a GI50 (TK-10 renal) of 1.59 µM. For the same compound, the TGI (TK-10 renal) was 3.03 µM, the GI50 (U251 CNS) was 1.78 µM and the TGI (U251 CNS) was 3.21 µM. The GI50 (UACC-257 melanoma) was 1.96 µM, the TGI (UACC-257 melanoma) was 3.69 µM and the GI50 (UACC-62 melanoma) was 1.87 µM. For the same compound, the TGI (UACC-62 melanoma) was 3.53 µM, the GI50 (UO-31 renal) was 1.38 µM and the TGI (UO-31 renal) was 2.83 µM.

`COc1ccc(/C=C2/CSCC3=C2NC(=S)NC3c2ccc(OC)c(OC)c2OC)c(OC)c1OC` (stereo unspecified) gave a TGI (786-0 renal) of 40.7 µM, a TGI (A498 renal) of 39.1 µM and a TGI (A549 NSCLC) of 95.9 µM. The TGI (ACHN renal) was 52.5 µM, the TGI (CAKI-1 renal) was 92.2 µM and the TGI (CCRF-CEM leukemia) was over 100 µM. The TGI (COLO 205 colon) was 76.9 µM, the TGI (DU-145 prostate) was over 100 µM and the TGI (EKVX NSCLC) was over 100 µM. It also gave a TGI (HCC-2998 colon) of 77.9 µM, a TGI (HCT-116 colon) of 60 µM and a TGI (HCT-15 colon) of over 100 µM. It also gave a TGI (HL-60(TB) leukemia) of over 100 µM, a TGI (HOP-62 NSCLC) of 47.9 µM and a TGI (HS 578T breast) of over 100 µM. For the same compound, the TGI (HT29 colon) was 61.1 µM, the TGI (IGROV1 ovarian) was 44.7 µM and the TGI (K-562 leukemia) was over 100 µM. It also gave a TGI (KM12 colon) of 34.1 µM, a TGI (LOX IMVI melanoma) of 58.3 µM and a TGI (M14 melanoma) of 32.6 µM. It also gave a TGI (MALME-3M melanoma) of 78.6 µM, a TGI (MCF7 breast) of over 100 µM and a TGI (MDA-MB-231 breast) of 59.4 µM. It also gave a TGI (MDA-MB-435) of 61.4 µM, a TGI (MOLT-4 leukemia) of over 100 µM and a TGI (NCI-H226 lung) of 99.3 µM. The TGI (NCI-H23 lung) was 43 µM, the TGI (NCI-H460 lung) was over 100 µM and the TGI (NCI-H522 lung) was 97.5 µM. It also gave a TGI (NCI/ADR-RES ovarian) of 32.2 µM, a TGI (OVCAR-3 ovarian) of over 100 µM and a TGI (OVCAR-4 ovarian) of 74.4 µM. It also gave a TGI (OVCAR-5 ovarian) of 57.5 µM, a TGI (OVCAR-8 ovarian) of over 100 µM and a TGI (PC-3 prostate) of 46.2 µM. The TGI (RPMI-8226 leukemia) was over 100 µM, the TGI (RXF 393 renal) was 52.9 µM and the TGI (SF-268 CNS) was over 100 µM. The TGI (SF-295 CNS) was over 100 µM, the TGI (SF-539 CNS) was 49.5 µM and the TGI (SK-MEL-2 melanoma) was 63.6 µM. It also gave a TGI (SK-MEL-28 melanoma) of 81.9 µM, a TGI (SK-MEL-5 melanoma) of 29.8 µM and a TGI (SK-OV-3 ovarian) of over 100 µM. For the same compound, the TGI (SN12C renal) was 71.8 µM, the TGI (SNB-19 CNS) was 51.5 µM and the TGI (SNB-75 CNS) was over 100 µM. The TGI (SW-620 colon) was 91.6 µM, the TGI (T-47D breast) was over 100 µM and the TGI (TK-10 renal) was 75.5 µM. It also gave a TGI (U251 CNS) of over 100 µM, a TGI (UACC-257 melanoma) of 67.7 µM and a TGI (UACC-62 melanoma) of 45 µM.

For `N=C(N)c1ccc(-c2ccc(/C=C/c3ccccc3)s2)cc1`, the GI50 (A498 renal) was 11.9 µM, the TGI (A498 renal) was 34.1 µM and the GI50 (ACHN renal) was 1.67 µM. For the same compound, the TGI (ACHN renal) was 3.03 µM, the GI50 (HL-60(TB) leukemia) was 2.17 µM and the TGI (HL-60(TB) leukemia) was 4.67 µM. The GI50 (HS 578T breast) was 2.58 µM, the TGI (HS 578T breast) was 7.32 µM and the GI50 (NCI-H226 lung) was 6.82 µM. It also gave a TGI (NCI-H226 lung) of 46 µM, a GI50 (OVCAR-5 ovarian) of 1.47 µM and a TGI (OVCAR-5 ovarian) of 2.87 µM. It also gave a GI50 (RXF 393 renal) of 1.65 µM, a TGI (RXF 393 renal) of 3.13 µM and a GI50 (SF-268 CNS) of 4.28 µM. For the same compound, the TGI (SF-268 CNS) was 39.7 µM, the GI50 (SK-MEL-28 melanoma) was 1.65 µM and the TGI (SK-MEL-28 melanoma) was 3.07 µM. For the same compound, the GI50 (SK-MEL-5 melanoma) was 2.6 µM, the TGI (SK-MEL-5 melanoma) was 7.12 µM and the GI50 (SK-OV-3 ovarian) was 2.07 µM. For the same compound, the TGI (SK-OV-3 ovarian) was 4.9 µM.
